Experiments:
Kidney = assay: Inhibition of lipid peroxidation in renal failured rat kidney homogenate assessed as inhibition of malondialdehyde level by TBARS assay; format: functional, tissue-based
Plasma = assay: Inhibition of lipid peroxidation in renal failured rat plasma assessed as inhibition of malondialdehyde level by TBARS assay; format: functional, cell-free
[1] = Antioxidant activity assessed as oxygen radical scavenging activity by ORAC-fluorescence assay; format: functional
[2] = Antioxidant activity against 2,2'-azobis (2-amidinopropane) dihydrochloride-induced fluorescence decay at 1.5 uM assessed as trolox equivalents by ORAC-fluorescence assay; format: functional

SMILES	IC50 (Kidney) [µM]	IC50 (Plasma) [µM]	Activity [1]	Activity [2]
COc1cc(OC)c(-c2oc3cc(O)c(O)cc3c2C=O)c(OC)c1 [LESPEDEZAVIRGATAL]	640	750	Dose-dependent effect	189
COc1ccc(O)c(-c2cc3ccc(O)c(OC)c3o2)c1OC [LESPEDEZAVIRGATOL]	160	180	Dose-dependent effect	763
O=C1O[C@H]([C@@H](O)CO)C(O)=C1O [ASCORBIC ACID]	3050	5540	Dose-dependent effect	165
COc1c(CCC(C)(C)O)c(O)cc2oc(=O)c3c4cc(O)c(O)cc4oc3c12 [LESPEDEZACOUMESTAN]	450	190	Dose-dependent effect	450

Source: ChEMBL document CHEMBL1157399, “Antioxidant 2-phenylbenzofurans and a coumestan from Lespedeza virgata” (J Nat Prod, 2008)
